{
  "source": "patent US8722654B2",
  "about": "“Lipoxin analogs as novel inhibitors of angiogenesis” (The Brigham and Women's Hospital, Inc., priority 2001, dated 2014)",
  "format_in_all_cases": "cell-based, human",
  "key": {"HUVEC [1]": {"system": "HUVEC", "experiment": "Inhibition of VEGF-stimulated HUVEC proliferation (MTT)", "details": "for % inhibition of VEGF-stimulated proliferation: equimolar 10 nM, representative experiment", "description": "(§1) Human umbilical vein endothelial cells (HUVEC) were isolated by 0.1% collagenase digestion (Worthington Biochemical, Bedford, Mass.) and propagated on gelatin-coated (0.1%) tissue culture plates in medium 199 (Gibco BRL, Grand Island, N.Y.) supplemented with 20% heat-inactivated fetal bovine serum (BioWhittaker, Walkersville, Md.), 50 μg/ml of endothelial cell mitogen (Biomedical Technologies, Stoughton, Mass.), 8 U/ml heparin (APP, Los Angeles, Calif.), 50 U/ml penicillin and 15 μg/ml streptomycin. Only passages 2 and 3 were used in reported experiments.\n(§2) HUVEC (5×10^3) were plated in 96-well plates coated with 0.1% gelatin for 1 h at room temperature. After 24 h, the medium was removed and replaced with fresh medium 199 supplemented with 5% fetal bovine serum and different concentrations of recombinant human VEGF165 (R&D Systems, Minneapolis, Minn.), LTD4 or LTB4. Endothelial cells were enumerated after 72 h using the MTT® assay (Sigma, St. Louis, Mo.) (15). ATL-1 was prepared as in Clish et al. (13). Percent inhibition was evaluated in a similar manner and included a 15 minute incubation (37° C.) with 15-epi-lipoxin A4, 15-epi-16-(para-fluoro)-phenoxy-lipoxin A4 methyl ester (ATL-1), LXA4, 15-epi-LXA4 or 15-R/S-methyl, LXA4 prior to the addition of agonists. All incubations were performed in triplicate. Before each experiment the integrity and concentration of ATL-1, LXA4, 15-epi-LXA4 or 15-R/S-methyl, LXA4 was assessed by physical methods including LC/MS/MS and UV (13)."}, "HUVEC [2]": {"system": "HUVEC", "experiment": "Endothelial cell migration, 48-well chemotaxis chamber", "details": "for induction of endothelial cell migration, compound alone: 100 nM, no VEGF; for inhibition of VEGF-stimulated HUVEC migration: VEGF 3 ng/ml", "description": "VEGF, ATL-1 or vehicle were added to the lower wells of a 48-well chemotaxis chamber (NeuroProbe, Cabin John, Md.). The wells were overlaid with a 10 μm pore size polycarbonate filter coated with 0.1% gelatin. HUVEC (1×10^6) were placed in the upper wells and the chamber was incubated (37° C., 5% CO2 for 12 h). Following incubations, filters were removed, scraped of cells from the upper surface, fixed and stained with Diff-Quik (Dade Behring, Newark, Del.). Cells that migrated across the filter toward the lower surface were enumerated by light microscopy; four fields were counted at high magnification (100×). Incubations were performed in triplicate. To assess inhibition, endothelial cells were suspended in media with vehicle or ATL-1 for 15 min before placement in the chamber."}, "HUVEC [3]": {"system": "HUVEC", "experiment": "HUVEC proliferation induced by the compound alone (MTT)", "description": "as §1, §2"}},
  "data": [
    {"molecule": "CCCCC[C@@H](O)/C=C/C=C\\C=C\\C=C\\[C@@H](O)[C@@H](O)CCCC(=O)O", "note": "(relative stereo) [15-epi-LXA4, 5S,6R,15R-trihydroxy-7,9,13-trans-11-cis-eicosatetraenoic acid]", "values": [
      {"measurement": "% inhibition of VEGF-stimulated proliferation", "setting": "HUVEC [1]", "result": "59.8±1.8", "unit": "%"},
      {"measurement": "induction of endothelial cell migration, compound alone", "setting": "HUVEC [2]", "result": "did not induce endothelial cell migration"},
      {"measurement": "inhibition of VEGF-stimulated HUVEC migration", "setting": "HUVEC [2]", "result": "concentration-dependent inhibition"}
    ]},
    {"molecule": "CCCCC[C@H](O)/C=C/C=C\\C=C\\C=C\\[C@@H](O)[C@@H](O)CCCC(=O)O", "note": "(relative stereo) [LXA4, 5S,6R,15S-trihydroxy-7,9,13-trans-11-cis-eicosatetraenoic acid]", "values": [
      {"measurement": "% inhibition of VEGF-stimulated proliferation", "setting": "HUVEC [1]", "result": "38.1±2.0", "unit": "%"},
      {"measurement": "induction of endothelial cell migration, compound alone", "setting": "HUVEC [2]", "result": "did not induce endothelial cell migration"},
      {"measurement": "inhibition of VEGF-stimulated HUVEC migration", "setting": "HUVEC [2]", "result": "concentration-dependent inhibition"}
    ]},
    {"molecule": "VEGF [reference compound]", "values": [
      {"measurement": "VEGF response, proliferation of HUVEC", "setting": "HUVEC [3]; VEGF comparison in LTD4 experiment", "result": "52.7±1.6", "unit": "%"},
      {"measurement": "VEGF-induced proliferation", "setting": "HUVEC [3]; footnote of table, VEGF comparison", "result": "VEGF-induced proliferation: 50.4 ± 4.0%"}
    ]},
    {"molecule": "CCCCC[C@H](O)[C@H](O)/C=C/C=C/C=C\\C=C\\[C@@H](O)CCCC(=O)O", "note": "[15-epi-LXB4]", "values": [
      {"measurement": "Percent of Proliferation", "setting": "HUVEC [3]; 0.1 nM", "result": "20.1 ± 1.2", "unit": "%"},
      {"measurement": "Percent of Proliferation", "setting": "HUVEC [3]; 1.0 nM", "result": "26.1 ± 2.8", "unit": "%"},
      {"measurement": "Percent of Proliferation", "setting": "HUVEC [3]; 10 nM", "result": "34.0 ± 2.5", "unit": "%"},
      {"measurement": "Percent of Proliferation", "setting": "HUVEC [3]; 100 nM", "result": "35.2 ± 5.2", "unit": "%"}
    ]},
    {"molecule": "CCCCC[C@H](O)[C@@H](O)/C=C/C=C/C=C\\C=C\\[C@@H](O)CCCC(=O)O", "note": "[14-epi-LXB4]", "values": [
      {"measurement": "Percent of Proliferation", "setting": "HUVEC [3]; 0.1 nM", "result": "15.5 ± 1.0", "unit": "%"},
      {"measurement": "Percent of Proliferation", "setting": "HUVEC [3]; 1.0 nM", "result": "18.3 ± 1.6", "unit": "%"},
      {"measurement": "Percent of Proliferation", "setting": "HUVEC [3]; 10 nM", "result": "27.0 ± 5.0", "unit": "%"},
      {"measurement": "Percent of Proliferation", "setting": "HUVEC [3]; 100 nM", "result": "27.7 ± 1.3", "unit": "%"}
    ]},
    {"molecule": "CCCCCC(C)(O)/C=C/C=C\\C=C\\C=C\\[C@@H](O)[C@@H](O)CCCC(=O)OC", "note": "(relative stereo) [15-R/S-methyl, LXA4, 5S,6R,15R/S-trihydroxy-15-methyl-7,9,13-trans-11-cis-eicosatetraenoic acid, methyl ester]", "values": [
      {"measurement": "induction of endothelial cell migration, compound alone", "setting": "HUVEC [2]", "result": "did not induce endothelial cell migration"},
      {"measurement": "inhibition of VEGF-stimulated HUVEC migration", "setting": "HUVEC [2]", "result": "concentration-dependent inhibition"}
    ]},
    {"molecule": "CCCCC/C=C\\C\\C=C/C=C/C=C/[C@@H](SC[C@H](N)C(=O)NCC(=O)O)[C@@H](O)CCCC(=O)O", "note": "[LTD4, reference compound]", "values": [
      {"measurement": "effect of LTD4 on VEGF-stimulated proliferation", "setting": "HUVEC [1]", "result": "did not enhance or inhibit"},
      {"measurement": "stimulated proliferation of HUVEC", "setting": "HUVEC [3]; 10 nM", "result": "42±1.2", "unit": "%"}
    ]}
  ]
}
